From BindingDB's records for PubMed 33032085 (Guangzhou University of Chinese Medicine, 2021) come the findings set out here.

The nature of this assay: Inhibition of influenza A virus neuraminidase using 2-(4-methylumbelliferyl)-a-D-acetylneuraminic acid as substrate incubated for 30 mins by fluorescence based analysis.

In the case of `C=C1C[C@@H]2[C@@]3(C)CCC(=O)C(C)(C)[C@@H]3C(=O)C[C@@]2(C)[C@@]2(C(=O)OC)C(=O)[C@](C)(O)C(=O)[C@@]12C`, the IC50 amounted to 18 nM. This counts as double-digit nanomolar.
